In PubChem BioAssay (NCI):
Several values for one entry are separate records, joined by “and”; a condition that tells them apart may be missing. Identical values can stand only once.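 Assay format: 96-well plates, 48-hour exposure. At the GI50, growth is halved. Definition used: TGI = concentration required for complete inhibition of growth.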

What was measured:
Assay in all cases: DTP human tumour cell line panel, 48 h
[1] = test system: SW-620 colon
[2] = test system: TK-10 renal
[3] = test system: MDA-MB-231 breast
[4] = test system: DU-145 prostate
[5] = test system: HCT-15 colon
[6] = test system: HCC-2998 colon
[7] = test system: SF-268 CNS
[8] = test system: SNB-75 CNS
[9] = test system: K-562 leukemia
[10] = test system: HS 578T breast
[11] = test system: OVCAR-4 ovarian
[12] = test system: SR leukemia

SMILES: O=c1c2c(oc3ccccc13)-c1ccccc1OC2
- TGI [1]: > 100 µM
- TGI [2]: > 100 µM
- TGI [3]: 47.4 µM
- TGI [4]: > 100 µM
- TGI [5]: > 100 µM
- TGI [6]: > 100 µM
- TGI [7]: > 100 µM
- TGI [8]: 50.7 µM
- TGI [9]: > 100 µM

SMILES: Cc1cc2c(cc1-c1cc3c(cc1C)C(C(C)C)=C(O)C(=O)/C3=C\Nc1c3ccccc3nc3ccccc13)/C(=C/Nc1c3ccccc3nc3ccccc13)C(=O)C(O)=C2C(C)C
- TGI [1]: 13.3 µM
- TGI [10]: 21 µM
- TGI [11]: 12.8 µM
- TGI [3]: 19 µM
- TGI [4]: 20.6 µM
- TGI [5]: 14.9 µM
- TGI [7]: 14.7 µM
- TGI [8]: 13 µM
- TGI [12]: 18.4 µM

SMILES: COc1cc(O)c2c(=O)cc(-c3ccc(O)cc3O)oc2c1CC=C(C)C
- TGI [1]: > 100 µM
- TGI [10]: > 100 µM
- TGI [11]: 28.5 µM
- TGI [2]: 74.3 µM
- TGI [3]: 54.1 µM
- TGI [4]: > 100 µM
- TGI [5]: 25.5 µM
- TGI [7]: 63.4 µM
- TGI [8]: 46.1 µM
- TGI [9]: > 100 µM
- TGI [12]: 26.3 µM

SMILES: CS(=O)(=O)c1nc(-c2cc3c(c(S(C)(=O)=O)n2)CCC3)cc2c1CCCCC2
- TGI [1]: > 100 µM
- TGI [10]: 40 µM
- TGI [11]: > 100 µM
- TGI [2]: > 100 µM
- TGI [3]: > 100 µM
- TGI [4]: > 100 µM
- TGI [5]: > 100 µM
- TGI [6]: > 100 µM
- TGI [7]: 92.2 µM
- TGI [8]: 24.7 µM
- TGI [9]: > 100 µM

SMILES: O=C1/C(=C\c2ccc(O)cc2)CCC/C1=C/c1ccc(Cl)c(Cl)c1
- TGI [1]: 12 µM
- TGI [10]: 21.5 µM
- TGI [11]: 5.93 µM
- TGI [2]: 10.5 µM
- TGI [3]: 7.55 µM
- TGI [4]: 9.8 µM
- TGI [5]: 9.75 µM
- TGI [6]: 5.94 µM
- TGI [7]: 11.9 µM
- TGI [8]: 11.8 µM
- TGI [9]: 11.9 µM

SMILES: CCOC(=O)NC(=O)c1cn(CCOC(=O)CCCCCCCCC(=O)OCCn2cc(C(=O)NC(=O)OCC)c(=O)[nH]c2=O)c(=O)[nH]c1=O
- TGI [1]: > 100 µM
- TGI [11]: > 100 µM
- TGI [2]: > 100 µM
- TGI [5]: > 100 µM
- TGI [6]: > 100 µM
- TGI [7]: > 100 µM
- TGI [8]: > 100 µM
- TGI [9]: > 100 µM
- TGI [12]: > 100 µM

SMILES: COc1ccc2c3c1O[C@]1(C)C34CCN(C)C(C2)C42C=C[C@@]1(OC)c1c(O)ccc(O)c12
- TGI [1]: > 100 µM
- TGI [2]: > 100 µM
- TGI [6]: > 100 µM
- TGI [7]: > 100 µM
- TGI [8]: > 100 µM
- TGI [9]: > 100 µM

SMILES: COc1cc2c(oc(=O)c3c4oc([Si](C)(C)C)cc4cc(OC)c23)c2cccc(OCc3ccccc3)c12
- TGI [1]: > 100 µM
- TGI [11]: > 88.5 µM
- TGI [2]: > 66.8 µM
- TGI [5]: > 100 µM
- TGI [6]: > 100 µM
- TGI [7]: > 70.7 µM
- TGI [8]: 48 µM
- TGI [9]: > 100 µM
- TGI [12]: > 100 µM

SMILES: Nc1ccnc(=O)[nH]1
- TGI [1]: > 100 µM
- TGI [11]: > 100 µM
- TGI [2]: > 100 µM
- TGI [5]: > 100 µM
- TGI [7]: > 100 µM
- TGI [8]: > 100 µM
- TGI [9]: > 100 µM

SMILES: C[C@]12CCC(=O)C=C1CC[C@@H]1[C@@H]2CC[C@]2(C)C(=O)NC(=O)C[C@@H]12
- TGI [1]: > 100 µM
- TGI [11]: > 100 µM
- TGI [2]: > 100 µM
- TGI [5]: > 100 µM
- TGI [6]: > 100 µM
- TGI [7]: > 100 µM
- TGI [8]: > 100 µM
- TGI [9]: > 100 µM
- TGI [12]: > 100 µM

SMILES: CCOC(=O)N1CCN(C=S)CC1
- TGI [1]: > 100 µM
- TGI [2]: > 100 µM
- TGI [5]: > 100 µM
- TGI [6]: > 100 µM
- TGI [7]: > 100 µM
- TGI [8]: > 100 µM
- TGI [9]: > 100 µM
- TGI [12]: > 100 µM

SMILES: O=C(Nc1ccc(Cl)cc1)NS(=O)(=O)c1coc2cc(F)ccc2c1=O
- TGI [1]: > 100 µM
- TGI [10]: > 100 µM
- TGI [11]: > 100 µM
- TGI [2]: > 100 µM
- TGI [3]: > 100 µM
- TGI [5]: > 100 µM
- TGI [6]: > 100 µM
- TGI [7]: > 100 µM
- TGI [8]: > 100 µM
- TGI [9]: > 100 µM
- TGI [12]: > 100 µM

SMILES: CSc1nc(C#N)c(/N=C\N(C)C)n1C
- TGI [1]: > 100 µM
- TGI [10]: > 100 µM
- TGI [11]: > 100 µM
- TGI [2]: > 100 µM
- TGI [3]: > 100 µM
- TGI [4]: > 100 µM
- TGI [5]: > 100 µM
- TGI [7]: > 100 µM
- TGI [9]: > 100 µM
- TGI [12]: > 100 µM

SMILES: CCOP(=O)(OCC)/C(C#N)=C/c1ncc[nH]1
- TGI [1]: > 100 µM
- TGI [10]: > 100 µM
- TGI [11]: > 100 µM
- TGI [3]: > 100 µM
- TGI [4]: > 100 µM
- TGI [6]: > 100 µM
- TGI [7]: > 100 µM
- TGI [8]: > 100 µM
- TGI [9]: > 100 µM
- TGI [12]: > 100 µM

SMILES: Cc1csc2c(=O)n(C3OC(CO)C(O)C3O)c(=O)[nH]c12 (stereo unspecified)
- TGI [1]: > 100 µM
- TGI [10]: > 100 µM
- TGI [11]: > 100 µM
- TGI [2]: > 100 µM
- TGI [3]: > 100 µM
- TGI [4]: > 100 µM
- TGI [7]: > 100 µM
- TGI [8]: > 100 µM
- TGI [9]: > 100 µM
- TGI [12]: > 100 µM

SMILES: Cc1cc(=O)n(-c2ccccc2C)c(C)n1
- TGI [1]: > 100 µM
- TGI [11]: > 100 µM
- TGI [2]: > 100 µM
- TGI [5]: > 100 µM
- TGI [6]: > 100 µM
- TGI [7]: > 100 µM
- TGI [8]: > 100 µM
- TGI [9]: > 100 µM

SMILES: COC(=O)C(=O)C(C(=O)C(=O)Nc1ccc(F)cc1)c1nc2ccc([N+](=O)[O-])cc2[nH]c1=O (stereo unspecified)
- TGI [1]: > 100 µM
- TGI [11]: > 100 µM
- TGI [2]: > 100 µM
- TGI [5]: > 100 µM
- TGI [6]: > 100 µM
- TGI [7]: > 100 µM
- TGI [8]: > 100 µM
- TGI [9]: > 100 µM
- TGI [12]: > 100 µM

SMILES: COc1ccc(-c2c(C#N)c(N)n(C3OCC(OC(C)=O)C(OC(C)=O)C3OC(C)=O)c(=S)c2C#N)cc1 (stereo unspecified)
- TGI [1]: > 100 µM
- GI50 [10]: 33.5 µM and 76.2 µM
- TGI [10]: > 100 µM
- TGI [11]: > 100 µM
- TGI [3]: > 100 µM
- TGI [4]: > 100 µM
- TGI [5]: > 100 µM
- TGI [6]: 60.9 µM and > 100 µM
- TGI [7]: > 100 µM
- TGI [8]: > 100 µM
- TGI [12]: 39.5 µM and 54.6 µM

SMILES: Cn1cc2ccccc2c1-c1nc(F)nc(F)n1
- TGI [1]: > 100 µM
- TGI [11]: > 100 µM
- TGI [2]: > 100 µM
- TGI [5]: > 100 µM
- TGI [6]: > 100 µM
- TGI [7]: > 100 µM
- TGI [8]: > 100 µM
- TGI [9]: > 100 µM
- TGI [12]: > 100 µM

SMILES: COC(=O)c1ccc(C)cc1CC1Cc2cc(C)ccc2C1=O (stereo unspecified)
- TGI [1]: > 100 µM
- TGI [10]: > 100 µM
- TGI [11]: > 100 µM
- TGI [2]: > 100 µM
- TGI [3]: > 100 µM
- TGI [5]: > 100 µM
- TGI [6]: > 100 µM
- TGI [7]: > 100 µM
- TGI [8]: > 100 µM
- TGI [9]: > 100 µM
- TGI [12]: > 100 µM

SMILES: CCCCOC(=O)C1C2CCC(O2)C1C(=O)OCCCC (stereo unspecified)
- TGI [1]: > 22.9 µM
- TGI [11]: > 100 µM
- TGI [2]: > 100 µM
- TGI [5]: > 100 µM
- TGI [6]: > 100 µM
- TGI [7]: > 100 µM
- TGI [8]: > 100 µM
- TGI [9]: > 100 µM

SMILES: CNc1ncnc2c1ncn2C1C=CC(COS(N)(=O)=O)C1 (stereo unspecified)
- TGI [1]: > 100 µM
- TGI [10]: > 100 µM
- TGI [11]: > 100 µM
- TGI [4]: > 100 µM
- TGI [5]: > 100 µM
- TGI [6]: > 100 µM
- TGI [7]: > 100 µM
- TGI [8]: > 100 µM
- TGI [9]: > 100 µM
- TGI [12]: > 100 µM
